The record followed here is PubChem BioAssay AID2696 (Johns Hopkins Ion Channel Center, 2010).

Each structure is given as a SMILES string.

Sequence of Short transient receptor potential channel 6 (Mus musculus) (Q61143 whole entry, looked up): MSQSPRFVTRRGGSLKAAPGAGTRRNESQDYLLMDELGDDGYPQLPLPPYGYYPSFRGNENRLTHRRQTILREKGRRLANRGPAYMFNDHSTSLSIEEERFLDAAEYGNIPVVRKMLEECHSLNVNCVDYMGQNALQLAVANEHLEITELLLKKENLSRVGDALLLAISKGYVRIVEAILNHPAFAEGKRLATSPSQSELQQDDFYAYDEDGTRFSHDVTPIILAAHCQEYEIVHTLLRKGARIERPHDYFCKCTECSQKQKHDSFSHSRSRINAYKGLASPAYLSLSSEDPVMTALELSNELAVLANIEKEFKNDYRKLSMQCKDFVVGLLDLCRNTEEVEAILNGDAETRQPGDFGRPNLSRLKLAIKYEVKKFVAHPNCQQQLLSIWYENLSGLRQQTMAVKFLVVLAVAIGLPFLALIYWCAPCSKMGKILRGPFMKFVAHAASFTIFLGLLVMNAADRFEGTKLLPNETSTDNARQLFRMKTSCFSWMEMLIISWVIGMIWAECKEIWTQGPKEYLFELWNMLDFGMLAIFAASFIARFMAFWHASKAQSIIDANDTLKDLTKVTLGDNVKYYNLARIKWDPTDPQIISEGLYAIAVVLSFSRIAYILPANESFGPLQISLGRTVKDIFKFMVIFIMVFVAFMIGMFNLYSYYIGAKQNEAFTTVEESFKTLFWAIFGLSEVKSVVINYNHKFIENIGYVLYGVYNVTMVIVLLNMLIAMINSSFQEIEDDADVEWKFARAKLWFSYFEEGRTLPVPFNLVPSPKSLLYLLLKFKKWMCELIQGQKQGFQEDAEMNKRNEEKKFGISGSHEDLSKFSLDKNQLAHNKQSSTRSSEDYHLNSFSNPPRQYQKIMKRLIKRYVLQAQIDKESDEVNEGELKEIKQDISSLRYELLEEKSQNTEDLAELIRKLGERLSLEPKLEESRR

The assay has as its target Short transient receptor potential channel 6 (Mus musculus) (UniProt Q61143). Nature of the assay: TRPC6 inhibitor potency, dose response, cell-based, mouse TRPC6, HEK293, membrane potential (AID 2696). Conditions: TRPC6-expressing HEK293 cells, membrane potential dye fluorescence, acetylcholine-stimulated.
As a reminder, the IC50 is the concentration at which inhibition is half-maximal. As for `CC(/C=N/n1c(-c2n[nH]c3c2CCC3)n[nH]c1=S)=C\c1ccco1`, the concentration for half-maximal inhibition (IC50) was 8.91 µM.
With `CC(C)Cn1c(=O)c(C(=O)Nc2ccncc2)c(O)c2ccccc21`, the IC50 was 3.16 µM.
For `CC(O)CNCCNCc1c(OCc2ccccc2)ccc2ccccc12` (stereo not drawn), the IC50 was 44.7 µM.
Regarding `O=C(NNS(=O)(=O)c1ccc(Cl)cc1)C1CCN(Cc2ccccc2)CC1`, the IC50 was 35.5 µM.
For the compound `Clc1ccc(C(c2ccccc2)N2CCNCC2)cc1` (stereo not drawn), the half-maximal inhibitory concentration (IC50) was 50.1 µM.
As for `COc1ccc(Cl)cc1Nc1nc(N)c2ccccc2n1`, the IC50 is 31.6 µM.
Turning to `C[N+]1(C)[C@@H]2CC[C@H]1CC(OC(=O)[C@@H](CO)c1ccccc1)C2` (stereo partly drawn), the IC50 is 0.02 µM.
With `Nc1c2ccccc2nc2ccccc12`, the half-inhibitory concentration (IC50) is 70.8 µM.
The same measure for `COc1ccccc1Nc1nc(N)nc(CSC(=S)N2CCCCC2C)n1` (stereo not drawn): 44.7 µM; for `CN(C)CCOC1c2ccccc2CSc2ccccc21` (stereo not drawn): 12.6 µM; for `CN1CCCN=C1COC(=O)C(O)(c1ccccc1)C1CCCCC1` (stereo not drawn): 0.05 µM.
For `CCC(CO)(C(=O)OC1C[N+]2(C)CCC1CC2)c1ccccc1` (stereo not drawn), the IC50 was 1.58 µM.
For `CCCN(CC1CC1)C(=O)CCc1nnc(CCc2c[nH]c3ccccc23)o1`, the IC50 was 50.1 µM.
The same measure for `O=C(CSc1ncccn1)N1CCN(C(c2ccccc2)c2ccccc2)CC1`: 50.1 µM; for `CCN(CC)CCCNc1nc(-c2ccccc2)nc2ccccc12`: 79.4 µM.
`N#CCCN(CCN1CCCC1)S(=O)(=O)c1ccc(-c2ccc([N+](=O)[O-])cc2)cc1`: the IC50 is 63.1 µM.
Regarding `COCCCNC(=S)N1CCCN(c2nc3cc(C)ccc3cc2C#N)CC1`, the half-maximal inhibitory concentration (IC50) is 39.8 µM.
The same measure for `N=c1c(C(=O)NCC2CCCO2)cc2c(=O)n3ccccc3nc2n1Cc1ccccc1Cl` (stereo not drawn): 44.7 µM; for `Cc1cc(N2CCN(C)CC2)ccc1NC(=O)c1ccc(-c2ccc(Cl)cc2)o1`: 44.7 µM; for `C[N+]1(C)C2CCC1CC(OC(=O)C(CO)c1ccccc1)C2` (stereo not drawn): 0.07 µM.
As for `CCN(CC)CCCNc1nc2ccccc2c2nc(-c3ccncc3)nn12`, the 50% inhibitory concentration (IC50) was 44.7 µM.
As to `CC[N+](C)(C)CC/C=C1/c2ccccc2Sc2ccc(Cl)cc21`, the 50% inhibitory concentration (IC50) was 1.58 µM.
`COc1ccc(OC)c2sc(N(CCN(C)C)C(=O)c3ccc4ccccc4c3)nc12`: the half-inhibitory concentration (IC50) was 70.8 µM.
Next, `c1ccc(-c2nc(-c3ccccn3)nc(-c3ccccn3)n2)nc1`: 44.7 µM; `CC(C)c1ccc(N2C(=O)CC(Sc3nc4ccccc4o3)C2=O)cc1` (stereo not drawn): 44.7 µM.
Consider `Cc1cccc(OCc2nnc(SCc3cc(=O)n4cc(Br)ccc4n3)o2)c1`, for which the IC50 was 70.8 µM.
For `O=[N+]([O-])c1cc([N+](=O)[O-])c2c(=Nc3ccccc3)n(-c3ccccc3)n(O)c2c1`, the 50% inhibitory concentration (IC50) was 50.1 µM.
On to `Cc1c(Cl)cccc1Nc1nc(NCCO)c2ccccc2n1`, for which the concentration for half-maximal inhibition (IC50) is 79.4 µM.
Next, `CCSc1ccc2cc(OC)ccc2[n+]1CC`: 50.1 µM; `CC(C)[N+](C)(CCOC(=O)C1c2ccccc2Oc2ccccc21)C(C)C`: 0.07 µM; `CC(C)(C)c1ccc(Cn2c(=N)n(CC(O)c3ccco3)c3ccccc32)cc1` (stereo not drawn): 44.7 µM.
The same measure for `C[N+]12CCC(CC1)C(OC(=O)C(O)(c1ccccc1)c1ccccc1)C2` (stereo not drawn): 0.04 µM; for `C[N+](C)(C)CCOC(=O)C1(c2ccccc2)CCCC1`: 8.91 µM.
Next, `CN(C)CCNS(=O)(=O)c1ccc(N2CCN(c3ccc(F)cc3)CC2)c([N+](=O)[O-])c1`: 56.2 µM; `O=C(c1ccc(C(=O)N2CCCc3ccccc32)s1)N1CCCc2ccccc21`: 44.7 µM; `CC(=O)OCC[N+](C)(C)C`: 1.58 µM.
For `Cc1cc(C)c2nc(N3CCC(C(=O)NCCCN4CCCCC4)CC3)sc2c1`, the IC50 is 39.8 µM.
As to `CC[n+]1c(/C=C/Nc2ccccc2)sc2ccccc21`, the IC50 is 79.4 µM.
As for `Cc1cccn2c(=O)c3cc(C(=O)NC(C)C)c(=N)n(Cc4ccncc4)c3nc12`, the IC50 was 70.8 µM.
`CN1CCN(CCC(C#N)(c2ccccc2)c2ccccc2)CC1`: the IC50 was 39.8 µM.
Consider `CCC(CO)(C(=O)OC1CC2CCC(C1)N2C)c1ccccc1` (stereo not drawn), for which the IC50 was 0.09 µM.
`COc1ccc(Nc2ccnc3ccccc23)cc1`: the IC50 is 70.8 µM.
For the compound `CCN(CC)CCNC(=O)c1nn(-c2ccc(C)cc2)c(=O)c2c1c1ccccc1n2C`, the IC50 is 79.4 µM.
As for `CCN(CC)CCC#CC(O)(c1ccccc1)C1CCCCC1` (stereo not drawn), the IC50 was 11.2 µM.
Take `CCN(CC)CCC/C(=N\O)C(O)(c1ccccc1)c1ccccc1`: the IC50 is 7.94 µM.
Turning to `Cc1cc(C)c2nc(C)cc(Nc3ccc(C(=O)NCCO)cc3)c2c1`, the IC50 was 44.7 µM.
For `CCOC(=O)c1ccc(NC(=O)CCc2ccc(CC)o2)cc1`, the IC50 was 79.4 µM.
Regarding `Fc1ccc([C@@H]2CCNC[C@H]2COc2ccc3c(c2)OCO3)cc1`, the IC50 is 44.7 µM.
As for `Cc1cc(-n2cccn2)ccc1CN1CCN(CC(C)C)C(CCO)C1` (stereo not drawn), the half-inhibitory concentration (IC50) was 11.2 µM.
For the compound `Cc1ccc(Oc2ccc(NC(=O)Cn3ccsc3=N)cc2)cc1`, the IC50 was 70.8 µM.
As for `CCOC(=O)c1cnc2c(Cl)cccc2c1NCCN(C)C`, the IC50 was 63.1 µM.
On to `O=C(c1ccccc1)N1CCN(C2C3CC4CC(C3)CC2C4)CC1` (stereo not drawn), for which the IC50 is 44.7 µM.
For `CC1(C(O)(C#CC[N+]2(C)CCCCC2)c2ccccc2)CCCC1` (stereo not drawn), the IC50 was 0.14 µM.
Regarding `CC1CCN(Cc2ccc(NC(=O)CC3Oc4ccccc4NC3=O)cc2)CC1` (stereo not drawn), the IC50 is 2.24 µM.
As for `CC1(C)CC(N=c2cc(-c3ccccc3)oc3ccc(Cl)cc23)CC(C)(C)N1`, the IC50 is 50.1 µM.
With `COc1ccc2ccccc2c1CNC(C)CCc1ccccc1` (stereo not drawn), the 50% inhibitory concentration (IC50) is 15.8 µM.
Next, `Cc1cc(Nc2cccc([N+](=O)[O-])c2)c2cccc(C)c2n1`: 44.7 µM; `CN(C)CCCNc1nc(-c2ccccc2)nc2ccccc12`: 79.4 µM.
With `Cc1ccc(-c2cc(-c3ccc(C)cc3)[n+](-c3ccccc3)c(-c3ccc(C)cc3)c2)cc1`, the IC50 was 50.1 µM.
Turning to `CCN(CC)CCOC(=O)C1c2ccccc2Oc2ccccc21`, the IC50 was 1.78 µM.
Consider `CCCCc1nc2ccccc2c(N)c1CCC` (tested in a mixture with another compound), for which the 50% inhibitory concentration (IC50) was 70.8 µM.
Regarding `Cc1cc(C)n(-c2nc(NCCCN(C)C)c3c4c(sc3n2)COC(C)(C)C4)n1`, the half-maximal inhibitory concentration (IC50) is 14.1 µM.
For `Cc1ccc(OCCCCCCN2CCNCC2)cc1`, the 50% inhibitory concentration (IC50) is 79.4 µM.
In the case of `CCOc1ccc(CNc2ccc3c(c2)ncn3C(C)(C)C)cc1`, the IC50 is 14.1 µM.
For the compound `O=C(c1ccc(C(F)(F)F)cc1)C1CCCN(C2CCSCC2)C1` (stereo not drawn), the IC50 is 39.8 µM.
Regarding `CN(C)CCCN1c2ccccc2Sc2ccc(C(F)(F)F)cc21`, the IC50 is 50.1 µM.
Consider `COc1ccc(-c2cc(=Nc3ccc(C)cc3)c3ccccc3o2)cc1`, for which the IC50 is 44.7 µM.
The same measure for `CN(C)c1cc(NC(=O)CN2CCCC2)c2ccccc2n1`: 44.7 µM; for `CCN(CC)CCn1c(NC(=O)c2ccccc2O)nc2ccccc21`: 31.6 µM; for `Cc1ccc(C2N(c3ccccc3)C(=S)N3CCCN23)cc1` (stereo not drawn): 25.1 µM.
Turning to `CCc1ccc(N=C2N=C(N)c3ccccc32)cc1`, the IC50 is 50.1 µM.
For the compound `COc1ccccc1OCCNCC(O)COc1cccc2[nH]c3ccccc3c12` (stereo not drawn), the half-inhibitory concentration (IC50) is 44.7 µM.
In the case of `CN(C)CCN(C(=O)c1cccs1)c1nc2cc3c(cc2s1)OCCO3`, the IC50 is 39.8 µM.
As to `CCCCn1c(-c2ccc([N+](=O)[O-])cc2)n[nH]c1=S`, the IC50 is 6.31 µM.
With `CN(C)CCn1c(C(=O)Nc2ccccc2)cc2ccccc21`, the IC50 was 39.8 µM.
The same measure for `COC(=O)c1[nH]c2ccccc2c1NC(=O)CN1CCN(C/C=C/c2ccccc2)CC1`: 50.1 µM.
With `COCC(C)NC(=O)c1ccc(CN2CCc3ccccc3C2)cc1` (stereo not drawn), the concentration for half-maximal inhibition (IC50) was 44.7 µM.
The same measure for `S=C1N(c2ccccc2)C(c2ccc(Cl)cc2)N2CCCN12` (stereo not drawn): 17.8 µM.
For the compound `Clc1ccc2c(N3CCCC3)ccnc2c1`, the IC50 was 56.2 µM.
As for `O=c1cc(C(F)(F)F)[nH]c2c(C(F)(F)F)cccc12`, the 50% inhibitory concentration (IC50) was 25.1 µM.
`Cc1ccccc1Nc1nc(N)c2ccccc2n1`: the IC50 is 44.7 µM.
`Cc1ccc(C23CC4CC(CC(CN)(C4)C2)C3)cc1`: the IC50 is 39.8 µM.
The same measure for `O=C(CCCOc1ccc(Cl)cc1Cl)N1CCN(c2ccccn2)CC1`: 63.1 µM; for `CC1=NN(c2ccccc2)C(=O)/C1=C/C=C/c1ccc(N(C)C)cc1`: 44.7 µM; for `Brc1ccc(-c2c[n+]3c(n2-c2ccccc2)SCC3)cc1`: 50.1 µM.
On to `N#Cc1c(-n2cccc2/C=N/O)sc2c1CCCC2`, for which the half-inhibitory concentration (IC50) is 39.8 µM.
The same measure for `CC(C)(C)NCc1cc(Br)ccc1OC1CCCC1`: 44.7 µM; for `CCOC(=O)c1cnc2c(C)cccc2c1NCCCN1CCOCC1`: 44.7 µM.
In the case of `O=C(c1ccc2c(=O)n3c(nc2c1)CCCCC3)N1CCN(C(c2ccccc2)c2ccccc2)CC1`, the IC50 is 19.9 µM.
With `CN(CCOC(=O)C1c2ccccc2Oc2ccccc21)C(C)(C)C`, the IC50 was 0.89 µM.
As to `Oc1ccccc1Nc1nc(NCC2CCCO2)c2ccccc2n1` (stereo not drawn), the IC50 was 50.1 µM.
The same measure for `C#CC[N+]1(C)[C@@H]2CC[C@H]1CC(OC(=O)C(CO)c1ccccc1)C2` (stereo partly drawn): 0.28 µM.
Take `CCn1c2c(c(=N)c3ccccc31)CCC2`: the IC50 is 50.1 µM.
For the compound `OC(CCN1CCCCC1)(c1ccccc1)c1ccccc1`, the IC50 is 2.82 µM.
On to `c1ccc(CNc2c3ccccc3nc3ccccc23)cc1`, for which the concentration for half-maximal inhibition (IC50) was 70.8 µM.
The same measure for `c1ccc(Cn2c(-c3ccccc3)c[n+]3c2SCCC3)cc1`: 3.98 µM.
As to `CCOC(=O)c1nc2cc3n(c(C)c-2c1C)C(C)C(C)=C3C` (stereo not drawn), the IC50 is 44.7 µM.
Consider `CCOC(=O)C1CCCN(C(=O)c2cc3c(C)nc4ccccc4c3o2)C1` (stereo not drawn), for which the 50% inhibitory concentration (IC50) was 50.1 µM.
Consider `COc1ccc2ccccc2c1CNCc1ccc(C)cc1`, for which the IC50 is 44.7 µM.
In the case of `Cc1onc(-c2c(F)cccc2Cl)c1C(=O)NC(=S)Nc1c(C)n(C)n(-c2ccccc2)c1=O`, the IC50 was 39.8 µM.
Take `COc1ccccc1N1CCN(Cc2ccc(O)c3ncccc23)CC1`: the half-maximal inhibitory concentration (IC50) was 39.8 µM.
In the case of `CCOCCN1CCN(C2c3ccccc3CSc3ccccc32)CC1` (stereo not drawn), the IC50 was 50.1 µM.
For the compound `CCOc1cccc(=NC2CCCCC2)c2c(C)n(C)c(C)c12`, the concentration for half-maximal inhibition (IC50) was 50.1 µM.
